Measured values from PubChem BioAssay (NCI).
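Compound exposure: 48 hours, 5 concentrations, 96-well plates. The concentration for full growth arrest is given as TGI.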

Experiments:
Assay in all cases: DTP human tumour cell line panel, 48 h
786-0 renal = system: 786-0 renal
A549 NSCLC = system: A549 NSCLC
ACHN renal = system: ACHN renal
CAKI-1 renal = system: CAKI-1 renal
COLO 205 colon = system: COLO 205 colon
DLD-1 colon = system: DLD-1 colon
DMS 114 small cell lung = system: DMS 114 small cell lung
DMS 273 small cell lung = system: DMS 273 small cell lung
HCC-2998 colon = system: HCC-2998 colon
HCT-116 colon = system: HCT-116 colon
HCT-15 colon = system: HCT-15 colon
HL-60(TB) leukemia = system: HL-60(TB) leukemia
HOP-92 NSCLC = system: HOP-92 NSCLC
HT29 colon = system: HT29 colon
IGROV1 ovarian = system: IGROV1 ovarian
K-562 leukemia = system: K-562 leukemia
KM12 colon = system: KM12 colon
KM20L2 colon = system: KM20L2 colon
LOX IMVI melanoma = system: LOX IMVI melanoma
LXFL 529 NSCLC = system: LXFL 529 NSCLC
M14 melanoma = system: M14 melanoma
M19-MEL melanoma = system: M19-MEL melanoma
MALME-3M melanoma = system: MALME-3M melanoma
MOLT-4 leukemia = system: MOLT-4 leukemia
NCI-H226 lung = system: NCI-H226 lung
NCI-H23 lung = system: NCI-H23 lung
NCI-H460 lung = system: NCI-H460 lung
NCI-H522 lung = system: NCI-H522 lung
OVCAR-3 ovarian = system: OVCAR-3 ovarian
OVCAR-4 ovarian = system: OVCAR-4 ovarian
OVCAR-5 ovarian = system: OVCAR-5 ovarian
OVCAR-8 ovarian = system: OVCAR-8 ovarian
RPMI-8226 leukemia = system: RPMI-8226 leukemia
RXF 393 renal = system: RXF 393 renal
RXF-631 renal = system: RXF-631 renal
SF-268 CNS = system: SF-268 CNS
SF-295 CNS = system: SF-295 CNS
SF-539 CNS = system: SF-539 CNS
SK-MEL-28 melanoma = system: SK-MEL-28 melanoma
SK-MEL-5 melanoma = system: SK-MEL-5 melanoma
SK-OV-3 ovarian = system: SK-OV-3 ovarian
SN12C renal = system: SN12C renal
SNB-19 CNS = system: SNB-19 CNS
SNB-75 CNS = system: SNB-75 CNS
SNB-78 CNS = system: SNB-78 CNS
SR leukemia = system: SR leukemia
SW-620 colon = system: SW-620 colon
TK-10 renal = system: TK-10 renal
U251 CNS = system: U251 CNS
UACC-257 melanoma = system: UACC-257 melanoma
UACC-62 melanoma = system: UACC-62 melanoma
UO-31 renal = system: UO-31 renal
XF 498 CNS = system: XF 498 CNS

Measured: TGI

CC1(C)C(=NN=C(N)N)C(C)(C)C1=NN=C(N)N
> 100 µM: all assays above
